US7449477B2, “7-phenyl-isoquinoline-5-sulfonylamino derivatives as inhibitors of akt (protein kinase B)” (Eli Lilly and Company, priority 2003, dated 2008)
Where a name gives a salt, the structure may show the parent alone.

What follows are compounds tested against T1, active human Akt1 (Homo sapiens, UniProt P31749) (assay: Akt1 Phosphorylation Assay (phosphocellulose filter-binding, 33P-Crosstide)). Conditions: active human recombinant Akt1 (full-length) 10 nM; 12.5 μM Crosstide; 20 μM ATP; 30 minutes at room temperature.
T1 construct: Active human recombinant Akt1 (full-length) purified from Sf9 insect cells; purchased Upstate Biotechnology, Inc. 14-276; host or cells: Sf9 insect cells
T1 sequence (P31749 whole entry): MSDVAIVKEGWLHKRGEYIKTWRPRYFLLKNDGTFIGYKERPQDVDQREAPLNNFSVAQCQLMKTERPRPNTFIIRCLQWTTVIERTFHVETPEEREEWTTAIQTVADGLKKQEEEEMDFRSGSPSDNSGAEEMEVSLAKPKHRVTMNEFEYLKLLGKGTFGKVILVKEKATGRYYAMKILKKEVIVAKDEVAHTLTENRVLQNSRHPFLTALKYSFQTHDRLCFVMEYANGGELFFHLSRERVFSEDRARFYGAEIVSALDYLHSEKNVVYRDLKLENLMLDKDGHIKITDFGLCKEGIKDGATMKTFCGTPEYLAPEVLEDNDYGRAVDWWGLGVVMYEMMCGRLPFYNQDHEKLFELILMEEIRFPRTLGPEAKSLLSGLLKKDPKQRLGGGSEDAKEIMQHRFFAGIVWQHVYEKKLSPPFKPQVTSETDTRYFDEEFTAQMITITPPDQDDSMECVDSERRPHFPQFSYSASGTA
Type: biochemical
Description: Akt1 Phosphorylation Assay
The assay described measures the phosphorylation of Crosstide by active human Akt1 and other Akt isoforms. Crosstide contains a consensus sequence derived from Akt substrates GSK3b and forkhead transcription factors (FKs). The ^33P-labeled Crosstide substrate is captured by phosphocellulose membrane filter plates.
Active human recombinant Akt1 (full-length) purified from Sf9 insect cells is from Upstate Biotechnology, Inc. (Cat. #14-276, 405 μg/ml). Crosstide substrate, NH2-GRPRTSSFAEG-COOH (M.W.1164) is purchased from Multiple Peptide System (Cat. # L59/GR145-153).
Solution (A): 20% DMSO (dimethylsulphoxide) or Compound in 20% DMSO; Solution (B): Assay Buffer Mix: 31.25 μM Crosstide, 37.5 mM MgCl2, 87.5 mM HEPES, pH 7.3, 50 μM ATP γ-^33P-ATP, 0.05 μCi/μl; Solution (C): Akt Kinase Mix: 31.25 mM HEPES, pH 7.3; 1 mM DTT, 25 nM UBI Akt1.
Procedure for Phosphocellulose Filter-Binding Assay
Ten μl of Solution (A) are first mixed with 20 μl Solution (B). The enzymatic reaction is initiated by adding 20 μl Solution (C) to the mixture. (Final concentration or amount in a 50-μl reaction mix: 4% DMSO or various compound concentration in 4% DMSO; 12.5 μM Crosstide; 15 mM MgCl2; 35 mM HEPES, pH7.3; 20 μM ATP; 1 μCi γ-^33P-ATP; 0.4 mM DTT; 10 nM UBI Akt1.) The reactions are performed in 96-well microtiter plates.
After 30 minutes at room temperature, the reaction is terminated by adding 80 μl of 10% H3PO4. An aliquot of 100 μl from each well is transferred to the phosphocellulose filter plate (Millipore MultiScreen, Catalog #MAPHN0B50). After 30 minutes, the reaction mix is filtered with a Millipore manifold following by 3 washes with 0.5% H3PO4. The filter is then vacuum-dried and the plate is fitted onto a Packard carrier. 100 μl/well Microscint20 are added and the contents are counted in a Packard Top Count.

IC50, ≤ 2000 nM:
O=C(Nc1ccc(CCCNCCNS(=O)(=O)c2cc(-c3ccccc3)cc3cnccc23)cc1)C1CC1 [Example 25, 7-Phenyl-isoquinoline-5-sulfonic acid {2-[3-(4-(cyclopropyl-carbonylamino)phenyl)-propylamino]-ethyl}-amide, dihydrochloride salt]
O=[N+]([O-])c1ccc(CC(O)CNCCNS(=O)(=O)c2cc(-c3ccccc3)cc3cnccc23)cc1 (racemic) [Example 83, 7-Phenyl-isoquinoline-5-sulfonic acid [2-(2-hydroxy-3-(4-nitrophenyl)-propylamino)-ethyl]-amide, dihydrochloride salt]
N#Cc1ccc(CC(O)CNCCNS(=O)(=O)c2cc(-c3ccccc3)cc3cnccc23)cc1 (stereo not drawn) [Example 111, 7-Phenyl-isoquinoline-5-sulfonic acid {2-[3-(4-cyano-phenyl)-2-hydroxy-propylamino]-ethyl}-amide, dihydrochloride salt, dihydrochloride salt, dihydrochloride salt, dihydrochloride …]
COc1cccc(CCCNCCNS(=O)(=O)c2cc(-c3ccccc3)cc3cnccc23)c1 [Example 31, 7-Phenyl-isoquinoline-5-sulfonic acid {2-[3-(3-methoxyphenyl)-propylamino]-ethyl}-amide, dihydrochloride salt]
N#Cc1ccc(CCCNCCNS(=O)(=O)c2cc(-c3ccccc3)cc3cnccc23)cc1O [Example 106, 7-Phenyl-isoquinoline-5-sulfonic acid {2-[3-(4-cyano-3-hydroxy-phenyl)-propylamino]-ethyl}-amide, bis-trifluoroacetate salt]
O=[N+]([O-])c1ccc([C@H](O)CCNCCNS(=O)(=O)c2cc(-c3ccccc3)cc3cnccc23)cc1 [Example 81, (R)-7-Phenyl-isoquinoline-5-sulfonic acid [2-(3-hydroxy-3-(4-nitrophenyl)-propylamino)-ethyl]-amide, mesylate salt]
O=[N+]([O-])c1ccc(CCCNCCNS(=O)(=O)c2cc(-c3ccccc3)cc3cnccc23)c(CCO)c1 [Example 58, 7-Phenyl-isoquinoline-5-sulfonic acid {2-[3-(2-(2-hydroxy-ethyl)-4-nitro-phenyl)-propylamino]-ethyl}-amide, dihydrochloride salt]
O=[N+]([O-])c1ccc(C(O)C(O)CNCCNS(=O)(=O)c2cc(-c3ccccc3)cc3cnccc23)cc1 (single isomer, unassigned; isomer 1) [Example 88, 7-Phenyl-isoquinoline-5-sulfonic acid [2-(2,3-dihydroxy-3-(4-nitrophenyl)-propylamino)-ethyl]-amide isomer 1, dihydrochloride salt]
Cc1cc([N+](=O)[O-])ccc1CCCNCCNS(=O)(=O)c1cc(-c2ccccc2)cc2cnccc12 [Example 40, 7-Phenyl-isoquinoline-5-sulfonic acid {2-[3-(2-methyl-4-nitrophenyl)-propylamino]-ethyl}-amide, dihydrochloride salt]
CN(C)CCOc1cc(Cl)ccc1CCCNCCNS(=O)(=O)c1cc(-c2ccccc2)cc2cnccc12 [Example 59, 7-Phenyl-isoquinoline-5-sulfonic acid {2-[3-(4-chloro-2-(2-dimethylamino-ethoxy)-phenyl)-propylamino]-ethyl}-amide, dihydrochloride salt]
CN1CCN(c2cc(Cl)ccc2CCCNCCNS(=O)(=O)c2cc(-c3ccccc3)cc3cnccc23)CC1 [Example 49, 7-Phenyl-isoquinoline-5-sulfonic acid {2-[3-(4-chloro-2-(4-methyl-piperazin-1-yl)-phenyl)-propylamino]-ethyl}-amide, tetrahydrochloride salt]
Nc1cccc(-c2cc(S(=O)(=O)NCCNCCCc3ccc([N+](=O)[O-])cc3)c3ccncc3c2)c1 [Example 92, 7-(3-aminophenyl)-isoquinoline-5-sulfonic acid [2-(3-(4-nitrophenyl)-propylamino)-ethyl]-amide, trihydrochloride salt]
COc1ccc(CCCNCCNS(=O)(=O)c2cc(-c3ccc(O)cc3)cc3cnccc23)c(F)c1 [Example 108, 7-(4-Hydroxy-phenyl)-isoquinoline-5-sulfonic acid {2-[3-(2-fluoro-4-methoxy-phenyl)-propylamino]-ethyl}-amide]
O=S1(=O)CCN(c2cc(Cl)ccc2CCCNCCNS(=O)(=O)c2cc(-c3ccccc3)cc3cnccc23)CC1 [Example 52, 7-Phenyl-isoquinoline-5-sulfonic acid {2-[3-(4-chloro-2-(1,1-dioxo-thiomorpholin-4-yl)-phenyl)-propylamino]-ethyl}-amide, trihydrochloride salt]
O=[N+]([O-])c1ccc(CCCNCCNS(=O)(=O)c2cc(-c3ccccc3)cc3cnccc23)c(-c2ccccc2)c1 [Example 42, 7-Phenyl-isoquinoline-5-sulfonic acid {2-[3-(5-nitro-biphenyl-2-yl)-propylamino]-ethyl}-amide, dihydrochloride salt]
O=S(=O)(NCCNCCCc1ccc(F)cc1-c1ccccc1)c1cc(-c2ccccc2)cc2cnccc12 [Example 36, 7-Phenyl-isoquinoline-5-sulfonic acid {2-[3-(5-fluoro-biphenyl-2-yl)-propylamino]-ethyl}-amide, dihydrochloride salt]
CS(=O)(=O)Nc1cccc(-c2cc(S(=O)(=O)NCCNCCCc3ccc([N+](=O)[O-])cc3)c3ccncc3c2)c1 [Example 94, 7-(3-methanesulfonylamino-phenyl)-isoquinoline-5-sulfonic acid {2-[3-(4-nitro-phenyl)-propylamino]-ethyl}-amide, dihydrochloride salt]
COc1ccc(CCCNCCNS(=O)(=O)c2cc(-c3cccc(O)c3)cc3cnccc23)c(F)c1 [Example 110, 7-(3-Hydroxy-phenyl)-isoquinoline-5-sulfonic acid {2-[3-(2-fluoro-4-methoxy-phenyl)-propylamino]-ethyl}-amide]
O=S(=O)(NCCNCCCc1ccc(F)cc1F)c1cc(-c2ccccc2)cc2cnccc12 [Example 70, 7-Phenyl-isoquinoline-5-sulfonic acid {2-[3-(2,4-difluorophenyl)-propylamino]-ethyl}-amide, dihydrochloride salt]
N#Cc1ccc(C(O)CCNCCNS(=O)(=O)c2cc(-c3ccccc3)cc3cnccc23)cc1 (stereo not drawn) [Example 75, 7-Phenyl-isoquinoline-5-sulfonic acid [2-(3-hydroxy-3-(4-cyanophenyl)-propylamino)-ethyl]-amide, dihydrochloride salt]
Cc1ccc([N+](=O)[O-])cc1CCCNCCNS(=O)(=O)c1cc(-c2ccccc2)cc2cnccc12 [Example 39, 7-Phenyl-isoquinoline-5-sulfonic acid {2-[3-(2-methyl-5-nitrophenyl)-propylamino]-ethyl}-amide, dihydrochloride salt]
O=S(=O)(NCCNCC(O)C(O)c1ccc(S(=O)(=O)C(F)(F)F)cc1)c1cc(-c2ccccc2)cc2cnccc12 (stereo not drawn) [Example 113, 7-Phenyl-isoquinoline-5-sulfonic acid {2-[2,3-dihydroxy-3-(4-trifuoromethanesulfonyl-phenyl)-propylamino]-ethyl}-amide, dihydrochloride salt]
CCCNS(=O)(=O)c1ccc(CCCNCCNS(=O)(=O)c2cc(-c3ccccc3)cc3cnccc23)cc1 [Example 21, 7-Phenyl-isoquinoline-5-sulfonic acid {2-[3-(4-(N-propylamino-sulfonyl)phenyl)-propylamino]-ethyl}-amide, dihydrochloride salt]
O=[N+]([O-])c1ccc(CCCNCCNS(=O)(=O)c2cc(-c3ccccc3)cc3cnccc23)c(Cl)c1 [Example 38, 7-Phenyl-isoquinoline-5-sulfonic acid {2-[3-(2-chloro-4-nitrophenyl)-propylamino]-ethyl}-amide, dihydrochloride salt]
